The values that follow come from patent publication US20220364989A1, “METHOD FOR MEASURING PHOTOTOXICITY OR PHOTOALLERGY AND REAGENT FOR USE THEREIN” (FUJIFILM Corporation, priority 2018, published 2022).

The conditions of series [1]: 24 h, 0.25 mmol/L, pH 8.
The conditions of series [2]: cited from earlier work.
The conditions of series [3]: 24 h, 0.25 mmol/L, pH 10.2.
The conditions of series [4]: cited from earlier work. The source holds these as a separate data set.
For series [5] the following is noted: 24 h, 0.25 mmol/L, pH 10.2. The source holds these as a separate data set.
The conditions of series [6]: 24 h, 0.25 mmol/L, pH 8. This is another data set of the same source.
For series [7] the following is noted: 24 h, 0.25 mmol/L.
Series [8] in a line: Average score of NAC and NAL depletion and phototoxicity or photoallergy determination, fluorescence detection. The following applies: for Average score (%): without light irradiation.
Series [9] in a line: Average score of NAC and NAL depletion and phototoxicity or photoallergy determination, UV detection.
Series [10] is described as follows: NAL depletion under and without ultraviolet irradiation, HPLC with UV detection (281 nm). The following applies: for NAL Depletion (%) without light irradiation: 25° C. 24 hours light-shielded; for NAL Depletion (%) without light irradiation / NAL Depletion (%) under light irradiation: test substance solution 1 mmol/L; for NAL Depletion (%) under light irradiation: 2,000 μW/cm^2 for 1 hour then 25° C. 23 hours.

Series [11] can be described thus: NAC depletion under and without ultraviolet irradiation, HPLC with UV detection (281 nm). Conditions: for NAC Depletion (%) without light irradiation: 25° C. 24 hours light-shielded; for NAC Depletion (%) without light irradiation / NAC Depletion (%) under light irradiation: test substance solution 1 mmol/L; for NAC Depletion (%) under light irradiation: 2,000 μW/cm^2 for 1 hour then 25° C. 23 hours.

A short description of series [12]: NAL depletion under and without ultraviolet irradiation, HPLC with fluorescence detection (284 nm excitation, 333 nm fluorescence). Conditions: for NAL Depletion (%): without light irradiation.
A short description of series [13]: NAC depletion under and without ultraviolet irradiation, HPLC with fluorescence detection (284 nm excitation, 333 nm fluorescence). The following applies: for NAC Depletion (%): without light irradiation.
The mark [14] stands for this setting: average of NAC and NAL depletion.
[15] abbreviates: without light irradiation, single compound.
[16] abbreviates: 25° C. 24 hours light-shielded, test substance solution 1 mmol/L.
The mark [17] stands for this setting: 2,000 μW/cm^2 for 1 hour then 25° C. 23 hours, test substance solution 1 mmol/L.

Read-outs that look alike come from different tables or passages of the source.

Take `CCOc1ccc2c(C)cc(=O)oc2c1` [compound 29, 4-Methyl-7-ethoxycoumarin]: in series [1], the “Difference in depletion (under light irradiation - without light irradiation) NAC (%)” value is on record as 93.6%, the “NAC Depletion (%) under light irradiation” value is on record as 93.6% and the “NAC Depletion (%) without light irradiation” value worked out at 0.0%. Also, the In vivo photoallergy result in series [2] (reported in References 1 and 2) is reported as “Positive”. Besides, in series [3], the “Difference in depletion (under light irradiation - without light irradiation) NAL (%)” value worked out at 19.3%, the “NAL Depletion (%) under light irradiation” value is recorded as 20.3% and the “NAL Depletion (%) without light irradiation” value is reported as 1.0%.
Regarding `CCCCC(CC)COC(=O)c1ccc(N(C)C)cc1` (centres unmarked) [No. 19, 2-ethylhexyl p-dimethylaminobenzoate], in series [4] (in vivo), the In vivo phototoxicity entry was “Negative”. Also, the In vivo photoallergy result in series [2] (in vivo) is “Positive”. For the same compound, the “NAL Depletion (%)” value in series [5] is listed as 1.3%. Besides, in [6], the “NAC Depletion (%)” value came to 98.1%.
As to `Oc1ccc(Cl)cc1Cc1cc(Cl)ccc1O` [No. 21, Dichlorophen], the In vivo photoallergy entry in [2] (in vivo) is reported as “Positive”. Besides, the “Average score (%)” value in [7] was 56.5%. For the same compound, in series [5], the “NAL Depletion (%)” value is 14.5%. The “NAC Depletion (%)” value in series [6] is on record as 98.5%.
For `Nc1ccc(S(N)(=O)=O)cc1` [compound 27, Sulfanilamide], in series [1], the “Difference in depletion (under light irradiation - without light irradiation) NAC (%)” value is given as 25.5%, the “NAC Depletion (%) under light irradiation” value is 26.1% and the “NAC Depletion (%) without light irradiation” value is recorded as 0.6%. Also, the In vivo photoallergy result in series [2] (reported in References 1 and 2) is recorded as “Positive”. In [3], the “Difference in depletion (under light irradiation - without light irradiation) NAL (%)” value was −0.2%, the “NAL Depletion (%) under light irradiation” value was 0.0% and the “NAL Depletion (%) without light irradiation” value is reported as 0.2%.
In the case of `CC(CN1c2ccccc2Sc2ccccc21)N(C)C.Cl` (racemic) [compound 14], in series [8] (single compound), the “Difference in depletion (under light irradiation - without light irradiation) Average score (%)” value amounted to 41.5% and the “Average score (%)” value came out at 12.2%. Further, in series [4] (reported in References 1 to 3), the In vivo phototoxicity result was “Positive”. Also, the In vivo photoallergy result in series [2] (reported in References 1 and 2) is recorded as “Positive”. Further, the “Average score (%) without light irradiation” value in [9] (setting [14]) was determined as 15.6%. Besides, in series [10], the “NAL Depletion (%) without light irradiation” value was determined as 3.5% and the “NAL Depletion (%) under light irradiation” value is listed as −438.6%. Also, in series [11], the “Difference in depletion (under light irradiation - without light irradiation) NAC (%)” value was found to be 61.9%, the “NAC Depletion (%) without light irradiation” value stood at 27.6% and the “NAC Depletion (%) under light irradiation” value came to 89.5%. Further, in series [12] (single compound), the “Difference in depletion (under light irradiation - without light irradiation) NAL (%)” value was found to be 6.6% and the “NAL Depletion (%)” value is 0.8%. In addition, in [13] (single compound), the “Difference in depletion (under light irradiation - without light irradiation) NAC (%)” value is listed as 76.4% and the “NAC Depletion (%)” value stood at 23.6%.
Turning to `CC(=O)c1ccc2ccccc2c1` [compound 37, Methyl β-naphthyl ketone], in series [1], the “Difference in depletion (under light irradiation - without light irradiation) NAC (%)” value was determined as 99.4%, the “NAC Depletion (%) under light irradiation” value came to 100.0% and the “NAC Depletion (%) without light irradiation” value came to 0.6%. In [3], the “Difference in depletion (under light irradiation - without light irradiation) NAL (%)” value is 6.9%, the “NAL Depletion (%) under light irradiation” value was 8.4% and the “NAL Depletion (%) without light irradiation” value was found to be 1.5%.
Turning to `Cc1ccc2oc(=O)ccc2c1` [compound 2, 6-Methylcoumarin], the In vivo phototoxicity result in series [4] (reported in References 1 to 3) is recorded as “Positive”. Also, in series [1], the “Difference in depletion (under light irradiation - without light irradiation) NAC (%)” value is reported as 95.8%, the “NAC Depletion (%) under light irradiation” value was 96.3% and the “NAC Depletion (%) without light irradiation” value is on record as 0.5%. Also, the In vivo photoallergy result in series [2] (reported in References 1 and 2) is “Positive”. Further, in series [3], the “Difference in depletion (under light irradiation - without light irradiation) NAL (%)” value came out at 5.5%, the “NAL Depletion (%) under light irradiation” value is given as 5.7% and the “NAL Depletion (%) without light irradiation” value turned out to be 0.2%.
`CC1(C)SC2C(NC(=O)Cc3ccccc3)C(=O)N2C1C(=O)O` (centres unmarked) [compound 44]: in [8] (single compound), the “Difference in depletion (under light irradiation - without light irradiation) Average score (%)” value worked out at 0.9% and the “Average score (%)” value worked out at 1.0%. Also, the In vivo phototoxicity entry in series [4] (reported in References 1 to 3) is given as “Negative”. In series [2] (reported in References 1 and 2), the In vivo photoallergy entry is recorded as “Negative”. In addition, the “Difference in depletion (under light irradiation - without light irradiation) Average score (%)” value in series [9] is on record as 0.6%. Moreover, in series [9] (setting [14]), the “Average score (%) under light irradiation” value came to 2.2% and the “Average score (%) without light irradiation” value turned out to be 1.6%. Also, in series [10], the “Difference in depletion (under light irradiation - without light irradiation) NAL (%)” value is listed as −0.2%, the “NAL Depletion (%) without light irradiation” value is on record as 1.9% and the “NAL Depletion (%) under light irradiation” value was determined as 1.6%. In series [11], the “Difference in depletion (under light irradiation - without light irradiation) NAC (%)” value worked out at 1.5%, the “NAC Depletion (%) without light irradiation” value was found to be 1.4% and the “NAC Depletion (%) under light irradiation” value came to 2.8%. Moreover, in [12] (single compound), the “Difference in depletion (under light irradiation - without light irradiation) NAL (%)” value is on record as 0.4% and the “NAL Depletion (%)” value was found to be 0.8%. In series [13] (single compound), the “Difference in depletion (under light irradiation - without light irradiation) NAC (%)” value worked out at 1.3% and the “NAC Depletion (%)” value amounted to 1.1%.
For `CCCCCCCCCCCCCCCCO` [compound 49, Cetyl alcohol], in series [4] (reported in References 1 to 3), the In vivo phototoxicity result was “Negative”. Also, in series [1], the “Difference in depletion (under light irradiation - without light irradiation) NAC (%)” value was 3.7%, the “NAC Depletion (%) under light irradiation” value is given as 5.5% and the “NAC Depletion (%) without light irradiation” value was determined as 1.8%. Besides, in series [2] (reported in References 1 and 2), the In vivo photoallergy result is “Negative”. Also, in [3], the “Difference in depletion (under light irradiation - without light irradiation) NAL (%)” value worked out at 3.3%, the “NAL Depletion (%) under light irradiation” value is listed as 6.1% and the “NAL Depletion (%) without light irradiation” value was found to be 2.8%.
On to `C[S+](C)[O-]` [compound 58], for which the results for the “Difference in depletion (under light irradiation - without light irradiation) Average score (%)” value in series [8] and in series [9] (single compound) were 0.1% and 0.3%, respectively. For the same compound, the “Average score (%) under light irradiation” value in [8] (setting [14]) was 0.1%. Also, the “Average score (%) without light irradiation” value in series [8] (setting [14]) stood at 0.0%. Besides, the In vivo phototoxicity result in series [4] (reported in References 1 to 3) is listed as “Negative”. Also, the In vivo photoallergy entry in series [2] (reported in References 1 and 2) is recorded as “Negative”. The “Average score (%)” value in series [9] (setting [15]) is listed as 0.1%. In addition, the “Difference in depletion (under light irradiation - without light irradiation) NAL (%)” value in [10] (single compound) was −0.2%; in series [12], 0.0%. Also, the “NAL Depletion (%)” value in series [10] (setting [15]) is recorded as 0.2%. The “Difference in depletion (under light irradiation - without light irradiation) NAC (%)” value in series [11] (single compound) worked out at 0.7%; in series [13], 0.1%. The “NAC Depletion (%)” value in [11] (setting [15]) came out at 0.0%. Moreover, in series [12] (setting [16]), the “NAL Depletion (%) without light irradiation” value stood at 0.0%. Also, the “NAL Depletion (%) under light irradiation” value in series [12] (setting [17]) came out at 0.0%. In addition, in [13] (setting [16]), the “NAC Depletion (%) without light irradiation” value is 0.0%. Besides, in series [13] (setting [17]), the “NAC Depletion (%) under light irradiation” value turned out to be 0.2%.
